Test results as given in patent US11254654B2, “Heterochromatin gene repression inhibitors” (The University of North Carolina at Chapel Hill, priority 2017, dated 2022).
Where a name gives a salt, the structure may show the parent alone.

What was measured:
[1] = tested on: H3K9me2/3; test: Global H3K9me2/3 western blot of acid extracted histones; assay type: cell-based, mouse; settings: 10 μM compound, 48 hours
Procedure: CiA:Oct4 N118/N163 cells were grown to confluency as described above in standard gelatin coated 6 well tissue culture plates. Media was aspirated and the cells were washed with 2 mL of PBS. The PBS was removed and the cells were trypsinized with 0.25% trypsin-EDTA until a single cell suspension was generated. Cells were transferred to a conical tube and pelleted at 300×g for 5 min. Supernatant was removed and the cells were washed with PBS and centrifuged at 300×g for 5 min. The PBS supernatant was removed. Nuclei were collected from the cells by resuspending the pellet in lysis buffer containing (50 mM HEPES pH 8.0, 140 mM NaCl, 1 mM EDTA, 10% glycerol, 0.5% NP40, 0.25% Triton X100). Cells were incubated in lysis buffer on ice for 10 min. Nuclei were pelleted at 1200×g for 5 min at 4° C. and the supernatant was removed. […]
SDS-PAGE sample gels were transferred to Millipore Immobilon-FL PVDF membranes either by semi-wet or wet transfer according to Bio-Rad procedure. […] Western blot membranes were imaged using the Licor Odyssey scanner and data analyzed using Image Studio v5.2 software.
HP1 gene repression and silencing is mediated by H3K9me3 deposition. […] Total extracted histone proteins were quantified by Bradford Coomassie and equal total protein was loaded per sample for gel electrophoresis and subsequent western blot analysis. […]

[2] = target: T1, GLP (Homo sapiens, UniProt Q9H9B1); test: In vitro activity against GLP; assay type: biochemical; settings: data not shown
T1 sequence (Q9H9B1 1-1298): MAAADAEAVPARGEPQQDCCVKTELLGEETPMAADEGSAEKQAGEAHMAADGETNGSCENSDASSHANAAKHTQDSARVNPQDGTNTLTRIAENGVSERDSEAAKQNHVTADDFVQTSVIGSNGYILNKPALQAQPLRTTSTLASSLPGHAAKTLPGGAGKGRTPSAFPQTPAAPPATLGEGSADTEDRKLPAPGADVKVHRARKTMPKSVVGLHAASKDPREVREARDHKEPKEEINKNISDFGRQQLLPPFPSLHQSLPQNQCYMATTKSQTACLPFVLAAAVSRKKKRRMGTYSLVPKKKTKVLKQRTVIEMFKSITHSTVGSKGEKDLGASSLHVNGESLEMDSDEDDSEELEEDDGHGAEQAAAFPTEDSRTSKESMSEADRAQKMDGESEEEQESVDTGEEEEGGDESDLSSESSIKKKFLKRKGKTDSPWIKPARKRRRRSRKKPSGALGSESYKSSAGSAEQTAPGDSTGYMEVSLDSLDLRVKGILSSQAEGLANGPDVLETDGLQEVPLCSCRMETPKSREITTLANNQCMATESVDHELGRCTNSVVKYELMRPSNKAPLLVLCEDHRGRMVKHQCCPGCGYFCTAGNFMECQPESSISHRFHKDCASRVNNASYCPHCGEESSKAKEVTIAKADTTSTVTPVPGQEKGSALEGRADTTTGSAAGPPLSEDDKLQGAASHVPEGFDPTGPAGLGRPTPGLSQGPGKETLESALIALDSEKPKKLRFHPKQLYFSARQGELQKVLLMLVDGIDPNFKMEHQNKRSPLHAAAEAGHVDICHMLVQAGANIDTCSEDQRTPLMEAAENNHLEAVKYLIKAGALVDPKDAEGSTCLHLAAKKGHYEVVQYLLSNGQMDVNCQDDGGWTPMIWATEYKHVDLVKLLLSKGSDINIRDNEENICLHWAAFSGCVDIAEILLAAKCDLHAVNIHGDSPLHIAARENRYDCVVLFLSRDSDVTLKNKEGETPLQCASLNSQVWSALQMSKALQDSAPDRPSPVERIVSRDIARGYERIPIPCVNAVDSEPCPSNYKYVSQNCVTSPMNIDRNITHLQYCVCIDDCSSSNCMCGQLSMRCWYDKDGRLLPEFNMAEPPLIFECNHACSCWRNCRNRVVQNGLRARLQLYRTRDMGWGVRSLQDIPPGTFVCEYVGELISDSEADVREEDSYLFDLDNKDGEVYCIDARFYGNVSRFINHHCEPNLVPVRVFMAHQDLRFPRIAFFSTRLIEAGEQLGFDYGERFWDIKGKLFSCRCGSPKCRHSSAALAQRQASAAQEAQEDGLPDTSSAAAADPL

## COc1cc2nc(N3CCCC3)nc(N[C@H]3CCCNC3)c2cc1OC [compound 1, (S)-6,7-Dimethoxy-N-(Piperidin-3-yl)-2-(Pyrrolidin-1-yl)Quinazolin-4-Amine Trifluoroacetic Acid Salt]
[1]
  Global H3K9me2/3 levels normalized to histone H4: roughly equivalent decreases in H3K9 methylation
[2]
  Activity against GLP in vitro: no detectable activity
